Earlier results, collected in patent US11166956B2, “Combinations of PDE1 inhibitors and NEP inhibitors” (INTRA-CELLULAR THERAPIES, INC., priority 2014, dated 2021).

Key:
NEP = NEP (Homo sapiens, UniProt P08473)
NEP and ACE = conditions: clinical studies

NEP, sequence (P08473 whole entry): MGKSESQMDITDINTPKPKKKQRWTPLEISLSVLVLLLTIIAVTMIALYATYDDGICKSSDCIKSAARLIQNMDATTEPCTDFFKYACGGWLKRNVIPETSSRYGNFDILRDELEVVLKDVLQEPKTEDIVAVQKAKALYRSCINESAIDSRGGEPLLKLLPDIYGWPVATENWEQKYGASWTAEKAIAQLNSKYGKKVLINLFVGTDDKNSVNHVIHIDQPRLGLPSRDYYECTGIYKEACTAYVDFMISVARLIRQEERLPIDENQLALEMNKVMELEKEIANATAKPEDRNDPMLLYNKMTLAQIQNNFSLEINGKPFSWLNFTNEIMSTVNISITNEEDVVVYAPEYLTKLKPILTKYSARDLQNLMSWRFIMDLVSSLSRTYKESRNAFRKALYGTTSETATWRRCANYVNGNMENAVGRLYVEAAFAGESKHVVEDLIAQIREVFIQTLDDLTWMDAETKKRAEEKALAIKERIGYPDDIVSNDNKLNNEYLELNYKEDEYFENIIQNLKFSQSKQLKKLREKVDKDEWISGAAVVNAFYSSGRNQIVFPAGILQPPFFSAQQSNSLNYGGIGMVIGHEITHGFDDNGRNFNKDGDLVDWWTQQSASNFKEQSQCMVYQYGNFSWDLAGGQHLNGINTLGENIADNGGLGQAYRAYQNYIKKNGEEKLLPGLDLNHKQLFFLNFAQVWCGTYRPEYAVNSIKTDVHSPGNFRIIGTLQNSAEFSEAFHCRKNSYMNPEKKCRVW

SMILES: COCCOC[C@H](CC1(C(=O)N[C@H]2CC[C@@H](C(=O)O)CC2)CCCC1)C(=O)Oc1ccc2c(c1)CCC2 [Candoxatril]
- blood-pressure lowering effect (NEP; in vivo): does not produce a stable blood-pressure lowering effect
- plasma ANP and cGMP levels (NEP; in vivo): dose-dependent increase
- levels of endothelin (NEP; patients with heart failure): increase levels of endothelin significantly

SMILES: COc1cc2c(c(O)c1OC)C(=O)C[C@@H](c1cc(O)ccc1O)O2 [dioclein]
- vasodilation (PDE1): induce PKG-dependent vasodilation

SMILES: O=C(N[C@H]1CCS[C@H]2CCC[C@@H](C(=O)O)N2C1=O)[C@@H](S)Cc1ccccc1 [omapatrilat]
- incidence of angioedema (NEP and ACE): severe incidence of angioedema
